“And” between values parts separate entries of the source, which are not always exact repeats. Equal values may be shown once.
Tested on: K24384-001-R-PDC complex spheroid viability
Experiment: Anticancer human tumor K24384-001-R-PDC patient-derived pancreatic adenocarcinoma cell line growth inhibition
Conditions: for viability, T/C: stronger effect = lower value
Excerpt: Multicellular complex tumor spheroid response to LSD1 Inhibitor Iadademstat in combination with a variety of drugs and investigational agents in selected tumor cell lines
The current study was undertaken to assess response to LSD1 inhibitors in combination with standard-of-care drugs and investigational agents in solid tumor complex spheroid models as well as in the K-562 leukemia. Complex spheroids include a stromal component modeled by human endothelial cells (HUVEC) and fibroblasts modeled by human mesenchymal stem cells (MSCs). The concentration ranges selected for each drug and investigational agent were based upon clinically achievable concentrations if the clinical Cmax of the agent was known.
Compounds. The drugs and investigational agents used in this study are listed on Table 1. All of the agents used, including staurosporine (NSC755774) and gemcitabine (NSC613327), were obtained from the Developmental Therapeutics Program, NCI. FDA-approved anticancer drugs are available from the NCI at http://dtp.nci.nih.gov/branches/dscb/oncology_drugset_explanation.html. Drugs and investigational agents were >95% pure by proton nuclear magnetic resonance (NMR) and liquid chromatography/mass spectrometry (LC/MS). Stock solutions were prepared at 400x in DMSO, stored at -70 degrees C, and diluted in fresh medium prior to their use. The final concentration of DMSO in cell culture wells never exceeded 0.25% (v/v). The FDA-approved anticancer drug set is available from the Developmental Therapeutics Program at https://dtp.cancer.gov/organization/dscb/obtaining/available_plates.htm. All drugs and investigational agents were tested over a range starting from a high concentration at or near the clinical Cmax and decreasing in half-log increments. If the clinical Cmax for an agent had not been determined, the highest concentration tested was 10 microM.
Cell Lines. The patient-derived cancer cell (PDC) lines: 292921-168-R-J2-PDC, K24384-001-R-PDC, and 521955-158-R2-J5-PDC pancreatic carcinomas, 556581-035-R-J1 ovarian carcinoma, 324938-238-R-J1-PDC, 855422-203-R-J1-PDC and 883617-216-R-J1-PDC urothelial bladder carcinomas, 743489-274-T-PDC renal cell carcinoma, 138582-R-J1 Merkel cell tumor, K60290-347-R-J1 and K57222-313-R-J1-PDC glioblastomas, 653999-131-R-J2-PDC, LG0703-F948-PDC, and 349418-098-R-PDC non-small cell lung carcinomas, 885512-296-R-J2-PDC, 171881-019-R-J1-PDC breast carcinomas and 186277-243-T-J2-PDC and 233499-124-R-J2-PDC colon carcinomas were obtained from the NCI Patient-Derived Models Repository (PDMR, https://pdmr.cancer.gov). The established cell lines NCI/ADR-RES (RRID:CVCL_14520 and OVCAR-5 (RRID:CVCL_1628) ovarian carcinomas, 786-O (RRID:CVCL_1051) and A498 (RRID:CVCL_A498) renal cell carcinoma, NCI-H211 (ATCC, cat. CRL-5824; RRID:CVCL_1529), NCI-H196 (ATCC, cat. CRL-5823, RRID:CVCL_1509), SW 1271 (ATCC, cat. CRL-2177, RRID:CVCL_1716) and NCI-H1876 (ATCC, cat. CRL-5902, RRID:CVCL_1503) small cell lung carcinomas, MDA-MB-231 (RRID:CVCL_0062) and MDA-MB-468 (RRID:CVCL_0419)breast carcinomas (10-12). Pooled donor human umbilical vein endothelial cells (HUVEC, Lonza, cat. CC-2519) and human mesenchymal stem cells (hMSC, Lonza, cat. PT-2501) were purchased from Lonza (Walkersville, MD).
Cell Culture. All cells were maintained in an incubator at 37 degrees C and 5% CO2 with 95% humidity. The PDC lines were cultured according to standard operating procedures established by the NCI PDMR (https://pdmr.cancer.gov). Briefly all PDCs were thawed and cultured in Matrigel-coated flasks prepared with a working solution of 1X Ham's F-12 nutrient mix, without supplementation (Invitrogen, Waltham, MA, cat. 11765054), 100 U/mL penicillin-streptomycin (Invitrogen, cat. 15140122), and 2.5% Matrigel (Corning Inc., Corning, NY, cat. 354248) for the first three passages. […]

[1] = curve of first compound, second compound 0.1 µM
[2] = curve of first compound, second compound 0.316 µM
[3] = curve of first compound, second compound 1 µM
[4] = curve of first compound, second compound 3.16 µM
[5] = curve of first compound, second compound 10 µM
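Note: spheroids exposed to agents for seven days before luminescence viability reading.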
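Throughout, for viability, T/C: 100% = DMSO vehicle control viability.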

Compound: Nc1ccccc1NC(=O)c1ccc(CNC(=O)OCc2cccnc2)cc1
- viability, T/C (compound 0.00949 µM): 95.6% and 102%
- viability, T/C (compound 0.03 µM): 102% and 108%
- viability, T/C (compound 0.0949 µM): 89.1% and 128%
- viability, T/C (compound 0.3 µM): 69.4% and 70.9%
- viability, T/C (compound 0.949 µM): 11.8% and 9.62%
- viability, T/C (compound 3 µM): 0.21% and 0.26%
- IC50 (curve of compound): 438 nM and 432 nM

Compound: Nc1ccccc1NC(=O)c1ccc(CNC(=O)OCc2cccnc2)cc1 + NC1CC1c1ccc(-c2cccc(O)c2)cc1
- IC50 [1]: 430 nM
- IC50 [2]: 389 nM
- IC50 [3]: 358 nM
- IC50 [4]: 328 nM
- IC50 [5]: 312 nM
- viability, T/C (second compound 0.1 µM, first compound 0.00949 µM): 111%
- viability, T/C (second compound 0.1 µM, first compound 0.03 µM): 113%
- viability, T/C (second compound 0.1 µM, first compound 0.0949 µM): 118%
- viability, T/C (second compound 0.1 µM, first compound 0.3 µM): 68.7%
- viability, T/C (second compound 0.1 µM, first compound 0.949 µM): 9.69%
- viability, T/C (second compound 0.1 µM, first compound 3 µM): 0.15%
- viability, T/C (second compound 0.316 µM, first compound 0.00949 µM): 95.7%
- viability, T/C (second compound 0.316 µM, first compound 0.03 µM): 121%
- viability, T/C (second compound 0.316 µM, first compound 0.0949 µM): 115%
- viability, T/C (second compound 0.316 µM, first compound 0.3 µM): 63.1%
- viability, T/C (second compound 0.316 µM, first compound 0.949 µM): 7.2%
- viability, T/C (second compound 0.316 µM, first compound 3 µM): 0.13%
- viability, T/C (second compound 1 µM, first compound 0.00949 µM): 101%
- viability, T/C (second compound 1 µM, first compound 0.03 µM): 112%
- viability, T/C (second compound 1 µM, first compound 0.0949 µM): 115%
- viability, T/C (second compound 1 µM, first compound 0.3 µM): 58.6%
- viability, T/C (second compound 1 µM, first compound 0.949 µM): 5.63%
- viability, T/C (second compound 1 µM, first compound 3 µM): 0.16%
- viability, T/C (second compound 3.16 µM, first compound 0.00949 µM): 96.1%
- viability, T/C (second compound 3.16 µM, first compound 0.03 µM): 117%
- viability, T/C (second compound 3.16 µM, first compound 0.0949 µM): 109%
- viability, T/C (second compound 3.16 µM, first compound 0.3 µM): 54%
- viability, T/C (second compound 3.16 µM, first compound 0.949 µM): 3.27%
- viability, T/C (second compound 3.16 µM, first compound 3 µM): 0.11%
- viability, T/C (second compound 10 µM, first compound 0.00949 µM): 101%
- viability, T/C (second compound 10 µM, first compound 0.03 µM): 110%
- viability, T/C (second compound 10 µM, first compound 0.0949 µM): 95.6%
- viability, T/C (second compound 10 µM, first compound 0.3 µM): 52.5%
- viability, T/C (second compound 10 µM, first compound 0.949 µM): 3.08%
- viability, T/C (second compound 10 µM, first compound 3 µM): 0.17%

Compound: CC(C)CC(NC(=O)C(Cc1ccccc1)NC(=O)c1cnccn1)B(O)O (configuration not stated) + NC1CC1c1ccc(-c2cccc(O)c2)cc1
- IC50 [1]: 0.518 nM
- IC50 [2]: 0.554 nM
- IC50 [3]: 0.541 nM
- IC50 [4]: 0.514 nM
- IC50 [5]: 0.383 nM
- viability, T/C (second compound 0.1 µM, first compound 0.000316 µM): 85.9%
- viability, T/C (second compound 0.1 µM, first compound 0.001 µM): 2.19%
- viability, T/C (second compound 0.1 µM, first compound 0.00316 µM): 0.45%
- viability, T/C (second compound 0.1 µM, first compound 0.01 µM): 0.17%
- viability, T/C (second compound 0.1 µM, first compound 0.0316 µM): 0.24%
- viability, T/C (second compound 0.1 µM, first compound 0.1 µM): 0.27%
- viability, T/C (second compound 0.316 µM, first compound 0.000316 µM): 95.9%
- viability, T/C (second compound 0.316 µM, first compound 0.001 µM): 1.68%
- viability, T/C (second compound 0.316 µM, first compound 0.00316 µM): 2.35%
- viability, T/C (second compound 0.316 µM, first compound 0.01 µM): 0.3%
- viability, T/C (second compound 0.316 µM, first compound 0.0316 µM): 0.24%
- viability, T/C (second compound 0.316 µM, first compound 0.1 µM): 1.4%
- viability, T/C (second compound 1 µM, first compound 0.000316 µM): 92%
- viability, T/C (second compound 1 µM, first compound 0.001 µM): 1.87%
- viability, T/C (second compound 1 µM, first compound 0.00316 µM): 0.24%
- viability, T/C (second compound 1 µM, first compound 0.01 µM): 0.3%
- viability, T/C (second compound 1 µM, first compound 0.0316 µM): 0.15%
- viability, T/C (second compound 1 µM, first compound 0.1 µM): 0.92%
- viability, T/C (second compound 3.16 µM, first compound 0.000316 µM): 85.5%
- viability, T/C (second compound 3.16 µM, first compound 0.001 µM): 1.44%
- viability, T/C (second compound 3.16 µM, first compound 0.00316 µM): 0.32%
- viability, T/C (second compound 3.16 µM, first compound 0.01 µM): 0.19%
- viability, T/C (second compound 3.16 µM, first compound 0.0316 µM): 0.18%
- viability, T/C (second compound 3.16 µM, first compound 0.1 µM): 0.22%
- viability, T/C (second compound 10 µM, first compound 0.000316 µM): 59.5%
- viability, T/C (second compound 10 µM, first compound 0.001 µM): 1.6%
- viability, T/C (second compound 10 µM, first compound 0.00316 µM): 3.23%
- viability, T/C (second compound 10 µM, first compound 0.01 µM): 1.83%
- viability, T/C (second compound 10 µM, first compound 0.0316 µM): 1.14%
- viability, T/C (second compound 10 µM, first compound 0.1 µM): 2.44%

Reference: PubChem BioAssay AID1918949 (Molecular Pharmacology Branch, DTP, NCI, 2023)
